From US20090076067A1, “PHARMACEUTICAL COMPOSITION COMPRISING AZARHODACYANINE COMPOUND AS ACTIVE INGREDIENT” (priority 2005, published 2009)

Key:
[1] = system: Plasmodium berghei NK 65 strain; experiment: animal or person; format: in vivo; conditions: for Survival days (mean survival days, treatment group minus control group) / Recovery Rate (suppression): 4 days; for Recovery Rate (suppression): P. berghei infected ICR mice; for Acute toxicity in treated mice: 25 mg/kg/day dose
Description: For a test to evaluate therapeutic effect of the compound, 4-day suppressive test which is commonly used for in vivo test to evaluate activity of anti-malaria compound was used. In this experiment, rodent malaria protozoa (Plasmodium berghei NK 65 strain) were used. The infected blood was collected from 5-weeks age (SPF) ICR strain male mouse which were infected intraperitoneally and successively cultured. From the caudal vein of the infected mouse, blood was collected to calculate infection rate. After confirming that infection rate was adequately elevated (10% to 20% infection), the malaria infected blood was collected from the heart of the mouse. The infection rate and count of the red blood cells (cells/mL) were calculated. The infected red blood cell was diluted with PBS buffer to achieve […] protozoa per 0.2 mL dose. The infected cells were injected to the caudal vein of uninfected mouse (ICR strain, male, 5-weeks age) to cause infection. Five mice were made into one group, and the test compound was administered in predefined concentration. From 2 hours after infection, the compound was administered every 24 hours for straight 4 days.
The compound of the invention to be used in this test was dissolved in saline (Otsuka Pharmaceutical Co., Ltd.) to obtain test solution of predefined concentration. When the compound was not dissolved in saline, it was dissolved in SSV (saline containing 0.5% sodium=carboxymethyl cellulose, 0.5% benzyl alcohol, 0.4% Tween 80) to prepare test solution. For the control group (non-treatment group), only saline (Otsuka) was administered. Positive controls S-1 to S-5 were dissolved in saline (Otsuka) or SSV in predetermined concentration to prepare test solution. When the compound was not dissolved in saline, it was dissolved in SSV. After measuring weight of each mouse, the dose for each mouse was calculated to achieve 5.0 to 40 mg concentration for weight1 kg.
Five mice were made into one group, and the test compound was administered intraperitoneally at predefined concentration. From 2 hours after infection, the compound was administered every 24 hours for straight 4 days. Subsequent to the 24 hours after last treatment, blood was collected from the tail of the mouse to prepare thin layer smear in order to count malaria protozoa infection in the treatment group and the control group under microscope. The mice showing maximum value and minimum value were excluded from the average calculation (average was calculated for three mice), to determine malaria protozoa infection rate (Parasitemia).
Using malaria protozoa infection rate thus calculated, recovery rate obtained from the test compound (suppression) was determined.
Recovery rate: suppression(%)=(b−a)/b×100 a: Protozoa infection rate in the treatment group b: Protozoa infection rate in the control group Mean survival days: MSD(day)=c−d c: Average days from the initial treatment (date of malaria infection) to the date of death for the treatment group (5 mice) d: Average days from the date of malaria infection to the date of death for the non-treatment (control) group (5 mice) […]
Tables 5 to 7 illustrate the recovery rate (%) and survival days (day) of malaria infected mice treated with intraperitoneal injection of the test compound and the control compound at predefined concentration. The meaning of symbols in the table is as follows.

[2] = system: Rat-derived L6 cells (rat skeletal myoblast cell); experiment: Rat L6 cell proliferation inhibition test; format: cell-based; conditions: Table 1, 72 hours, Alamar Blue
Description: Rat-derived L6 cells (rat skeletal myoblast cell) were used for this test. […] The sample was cultured under CO2 concentration 5% and temperature 37° C. Either the composition of the invention or control was dissolved into DMSO, to prepare test solutions having predefined concentration.
The samples were precultured until logarithmic growth phase was reached. Then the culture was transferred to each well in a 96-well culture plate, and either test solution containing test compound at predefined concentration or DSMO without compound was added. The test solution was duplicated.
The plate was cultured in an incubator for 72 hours, to examine proliferation inhibition activity. The activity was examined as follows. Alamar Blue water solution 10 μL was added to each well, and culture was continued for 2 hours. Next, the culture plate was mounted on a fluorescence microplate reader (Spectramax Gemeni XS; Molecular Devices Corporation, U.S.), and irradiated with excitation wavelength 536 nm to determine fluorescence at 588 nm. The survival rate of L6 cells in the test solution sample and control sample was calculated.
Proliferation inhibition rate(%)={(C−A)/(B−A)}×100
A: Initial cell count B: Cell count in control after 3 days C: Cell count in test solution after 3 days

[3] = system: Plasmodium Falciparum k1 strain; experiment: Chloroquine-resistant tropical malaria protozoa proliferation inhibition screening test; format: cell-based; conditions: chloroquine-resistant K1 strain; 3H-hypoxanthine uptake
Description: In this experiment, Plasmodium Falciparum k1 strain protozoa were used. The medium used in the experiment was filter-sterilized RPMI-1640 medium. To the medium human serum was added to achieve 5% concentration. The protozoa was cultured under condition of O2 concentration 3%, CO2 concentration 4%, N2 concentration 93%, and temperature 37° C.
The cultured malaria infected red blood cells were collected by centrifugation, diluted with non-infected red blood cells, to achieve initial infection rate 0.15%. The hematocrit was 2.5%.
To each well in a 96-well culture plate, 200 μL malaria infected culture was added, and either test solution containing test compound at predefined concentration or DMSO having no test compound was added. Each test solution was prepared in duplicate. After 48 hours culture under 37° C., hypoxanthine labeled with radioactive tritium (^3H) of 0.5 μCi was added to each well. After culturing under same condition for 24 hours, the product was collected on a glass fiber filter and washed. The intensity of radiation was measured by Beta plate liquid scintillation counter (Wallac Inc.), to determine malaria protozoa infection rate in test compound samples and control samples.
Using the malaria protozoa infection rate, the proliferation inhibition rate was calculated according to the following equation to determine 50% proliferation inhibition concentration (EC50).
Proliferation inhibition rate(%)={1−(b−a)/(c−a)}×100
a: initial infection rate b: infection rate of test compound solution c: infection rate of the control

[4] = Plasmodium berghei, ip, 96 h, read-out: Recovery Rate (suppression)
[5] = dose 25 mg/kg/d intraperitoneally
[6] = dose 5.0 mg/kg/d intraperitoneally

SMILES: CCn1c(=O)/c(=C2\C=CC=CN2C)s/c1=C1\S/C(=N\c2scc(-c3ccc(Cl)cc3)[n+]2C)N(c2ccccc2)C1=O [Compound B-13]
- inhibition in vivo at 25 mg/kg/day [1, 4]: 95.6%

SMILES: C=CCn1c(=O)/c(=C2\C=CC=CN2C)s/c1=c1\s/c(=C\c2cccc[n+]2C)n(CC)c1=O [Compound S-6, reference compound]
- inhibition in vivo at 50 mg/kg/day [1, 4]: 25.9%
- Survival days (mean survival days, treatment group minus control group) ([1]; dose 50 mg/kg/d intraperitoneally): 0 days

SMILES: C=CCN1C(=O)/C(=c2/s/c(=C3/SCCN3C)c(=O)n2CC)S/C1=N\c1scc[n+]1C [Compound B-41]
- Survival days (mean survival days, treatment group minus control group) [1, 5]: 1.3 days
- Recovery Rate (suppression) [1, 5]: 58.5%

SMILES: C=CCN1C(=O)/C(=c2/s/c(=C3/C=CC=CN3C)c(=O)n2CC)S/C1=N\c1scc[n+]1C [Compound B-40]
- EC50 cytotoxicity L6 [2]: 27.38 µg/mL

SMILES: CCn1c(=O)/c(=c2/s/c(=C3/Sc4ccccc4N3C)c(=O)n2CC)s/c1=C\c1sc2ccccc2[n+]1C [Compound S-5, reference compound]
- inhibition in vivo at 5 mg/kg/day [1, 4]: 41%

SMILES: CCN1C(=O)/C(=C2\C=CC=CN2C)S/C1=N\c1cc[n+](C)c2cc(Cl)ccc12 [Compound A-15]
- inhibition in vivo at 25 mg/kg/day [1, 4]: 60.3%
- Survival days (mean survival days, treatment group minus control group) [1, 5]: 2.0 days

SMILES: CCn1c(=O)/c(=C2\SCCN2C)s/c1=C1\S/C(=N\c2sc3cc(Cl)ccc3[n+]2C)N(c2ccc(OC)cc2)C1=O [Compound B-26]
- Survival days (mean survival days, treatment group minus control group) [1, 5]: 2.0 days
- Recovery Rate (suppression) [1, 5]: 64.3%

SMILES: CCn1c(=O)/c(=c2\nc3c(o2)=CC=CN3C)s/c1=C1\S/C(=N\c2sc3cc(Cl)ccc3[n+]2C)N(Cc2ccccc2)C1=O [Compound B-18]
- Survival days (mean survival days, treatment group minus control group) [1, 5]: 7.0 days
- Recovery Rate (suppression) [1, 5]: 22.39%

SMILES: CCn1c(=O)/c(=C2\C=CC=CN2C)s/c1=C1\S/C(=N\c2sc3cc(Cl)ccc3[n+]2C)N(c2ccc(OC)cc2)C1=O [Compound B-17]
- inhibition in vivo at 25 mg/kg/day [1, 4]: 73.1%
- Survival days (mean survival days, treatment group minus control group) [1, 5]: 6.8 days

SMILES: CCN1C(=O)/C(=c2/s/c(=C3/C=CC=CN3C)c(=O)n2CC)S/C1=N\c1scc[n+]1C [Compound B-19]
- EC50 P. falciparum K1 [3]: 0.0166 µg/mL
- EC50 cytotoxicity L6 [2]: 27.92 µg/mL

SMILES: CCn1c(=O)/c(=C2\Sc3ccc4ccccc4c3N2C)s/c1=C\c1cccc[n+]1C [Compound S-4, reference compound]
- Acute toxicity in treated mice [1]: caused death
- inhibition in vivo at 5 mg/kg/day [1, 4]: 17.1%
- inhibition in vivo at 10 mg/kg/day [1, 4]: 36%
- Toxicity noted [1, 5]: toxic

SMILES: CCN1C(=O)/C(=c2/s/c(=C3/SCCN3C)c(=O)n2CC)S/C1=N\c1scc[n+]1C [Compound B-27]
- Survival days (mean survival days, treatment group minus control group) [1, 5]: 2.0 days
- Recovery Rate (suppression) [1, 5]: 55.4%

SMILES: CCn1c(=O)/c(=C2\C=CC=CN2C)s/c1=C1\S/C(=N\c2sc3cc(Cl)ccc3[n+]2C)N(c2ccccc2)C1=O [Compound B-11]
- inhibition in vivo at 25 mg/kg/day [1, 4]: 82.7%

SMILES: CCN1C(=O)/C(=C2\C=Cc3ccccc3N2C)S/C1=N\c1cccc[n+]1C [Compound A-14]
- inhibition in vivo at 10 mg/kg/day [1, 4]: 64.5%

SMILES: CCn1c(=O)/c(=C2\SCCN2C)s/c1=C1\S/C(=N\c2scc[n+]2C)N(Cc2ccccc2)C1=O [Compound B-23]
- Survival days (mean survival days, treatment group minus control group) [1, 5]: 7.0 days
- Recovery Rate (suppression) [1, 5]: 85.1%

SMILES: CCN1C(=O)/C(=C/C=C2\Sc3ccccc3N2C)S/C1=N\c1scc(-c2ccc(Cl)cc2)[n+]1C [Compound C-4]
- inhibition in vivo at 5 mg/kg/day [1, 4]: 37.9%

SMILES: CCN1C(=O)/C(=C/C=C2\Sc3ccccc3N2C)S/C1=N\c1c(O)ccc[n+]1C [Compound C-3]
- Recovery Rate (suppression) [1, 6]: 43.9%

SMILES: CCN1C(=O)/C(=c2/s/c(=C3/SCCN3C)c(=O)n2CC)S/C1=N\c1sc2ccccc2[n+]1C [Compound B-31]
- Survival days (mean survival days, treatment group minus control group) [1, 5]: 1.7 days
- Recovery Rate (suppression) [1, 5]: 90.6%

SMILES: CCn1c(=O)/c(=C2\C=CC=CN2C)s/c1=C1\S/C(=N\c2scc[n+]2C)N(Cc2ccccc2)C1=O [Compound B-21]
- Survival days (mean survival days, treatment group minus control group) [1, 5]: 7.0 days
- Recovery Rate (suppression) [1, 5]: 80.4%

SMILES: C=CCn1c(=O)/c(=C2\Sc3ccccc3N2C)s/c1=C\c1cccc[n+]1C [Compound S-2, reference compound]
- Acute toxicity in treated mice [1]: caused death
- inhibition in vivo at 10 mg/kg/day [1, 4]: 27%

SMILES: CCN1C(=O)/C(=c2/s/c(=c3/nc4c(o3)=CC=CN4C)c(=O)n2CC)S/C1=N\c1scc[n+]1C [Compound B-20]
- EC50 P. falciparum K1 [3]: 0.017 µg/mL
- Survival days (mean survival days, treatment group minus control group) [1, 5]: 6.3 days
- Recovery Rate (suppression) [1, 5]: 56.1%
- EC50 cytotoxicity L6 [2]: 69.34 µg/mL

SMILES: C=C[C@H]1C[N@@]2CC[C@H]1C[C@H]2[C@H](O)c1ccnc2ccc(OC)cc12 [Quinine, reference compound]
- inhibition in vivo at 10 mg/kg/day [1, 4]: 18.6%
- Survival days (mean survival days, treatment group minus control group) ([1]; dose 10 mg/kg/d intraperitoneally): 1.0 days

SMILES: CCn1c(=O)/c(=C2\C=CC=CN2C)s/c1=C1\S/C(=N\c2sc3cc(Cl)ccc3[n+]2C)N(Cc2ccccc2)C1=O [Compound B-16]
- inhibition in vivo at 20 mg/kg/day [1, 4]: 97.4%

SMILES: CCn1c(=O)/c(=C2\Sc3ccccc3N2C)s/c1=C\c1cccc[n+]1CC [Compound S-1, reference compound]
- inhibition in vivo at 10 mg/kg/day [1, 4]: 30%
- Toxicity noted [1, 5]: toxic

SMILES: C=CCN1C(=O)/C(=c2/s/c(=C3/C=CC=CN3C)c(=O)n2CC)S/C1=N\c1sc2cc(Cl)ccc2[n+]1C [Compound B-38]
- Recovery Rate (suppression) [1, 5]: 95.7%

SMILES: CCN1C(=O)/C(=C/C=C2\Sc3ccccc3N2C)S/C1=N\c1sc2cc(Cl)ccc2[n+]1C [Compound C-2]
- EC50 P. falciparum K1 [3]: 0.02495 µg/mL
- Recovery Rate (suppression) [1, 6]: 32.1%
- EC50 cytotoxicity L6 [2]: 11.33 µg/mL
